Experiment: Retention rate of the agriculturally active ingredient after xenon light irradiation (photodegradation)
Format: physicochemical
Details: active ingredient alone, air-dried on glass petri dish; xenon light (290 nm cutoff), 0.68 W/m^2 at 340 nm, 8 hours, 35° C.; weight % relative to 5 mg
Method: A method for the calculation of a retention rate of the agriculturally active ingredient defined above is more specifically as follows. First, 250 mg of the agriculturally active ingredient is dissolved in 50 mL of a solvent such as acetone, which can sufficiently dissolve the agriculturally active ingredient and also has high volatility, and 1 mL of the solution is added to a glass petri dish having a diameter of 6 cm using a one-mark pipette, spread entirely over the petri dish, and then air-dried at room temperature. The petri dish is covered with a lid made of quartz glass and then set in a weathering tester (manufactured by Q-Lab Corporation under the trade name of Q-SUN Xenon Accelerated Weathering Tester, Model Xe-3) equipped with a borosilicate filter (manufactured by Q-Lab Corporation under the trade name of Daylight-BB Optical Filter) attached thereto. After irradiation with xenon light under the conditions of an intensity at 340 nm of 0.68 W/m^2 and a temperature of 35° C. (35° C. as measured by an insulated black panel thermometer) for 8 hours, the amount of the agriculturally active ingredient remaining on the petri dish is determined by a known determination method such as high-performance liquid chromatography. It is possible to determine a retention rate by calculating as the weight percentage relative to 5 mg of the agriculturally active ingredient used above. The above agriculturally active ingredient used in the microcapsule of the present invention may be any of an insecticidally active component, a fungicidally active component, and a herbicidally active component, and is not particularly limited. The agriculturally active ingredient includes fenpyrazamine, allethrin, and prallethrin. […] It is preferred to use an agriculturally active ingredient which is solid at normal temperature (25° C.), for example fenpyrazamine.

Structure (SMILES)	retention rate after irradiation with xenon light [%]
C#CCC1=C(C)C(OC(=O)C2C(C=C(C)C)C2(C)C)CC1=O (stereo not drawn) [prallethrin]	6.4
C=CCC1=C(C)C(OC(=O)C2C(C=C(C)C)C2(C)C)CC1=O (stereo not drawn) [allethrin]	3.3
C=CCSC(=O)n1c(N)c(-c2ccccc2C)c(=O)n1C(C)C [fenpyrazamine]	28.1

Source: patent publication US20150173351A1, “MICROCAPSULE” (priority 2012, published 2015)
